Test results from patent US10167262B2, “Herbicidal substituted 3-arylpyrazoles” (FMC CORPORATION, priority 2014, dated 2019).

Legend:
Format in all cases: in vivo
rice (Oryza sativa) = assay: Test B flooded paddy test, plant response rating 0-100; details: Flood, 250 g ai/ha; scale 0 to 100 (0 no effect, 100 complete control); 13 to 15 days
How it was run: (§1)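 Under a constant 3 cm flood, test compounds went directly into the paddy water. Following 13 to 15 days of greenhouse growth, treated species and controls were compared by eye.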

[1] = system: ducksalad (Heteranthera limosa); assay: as above; details: Flood, 250 g ai/ha; scale 0 to 100 (0 no effect, 100 complete control); 13 to 15 days
How it was run: as §1

[2] = system: sedge, umbrella (small-flower umbrella sedge, Cyperus difformis); assay: as above; details: Flood, 250 g ai/ha; scale 0 to 100 (0 no effect, 100 complete control); 13 to 15 days
How it was run: as §1

[3] = system: barnyardgrass (Echinochloa crus-galli); assay: as above; details: Flood, 250 g ai/ha; scale 0 to 100 (0 no effect, 100 complete control); 13 to 15 days
How it was run: as §1

[4] = system: wild poinsettia (Euphorbia heterophylla); assay: Test E pre-/postemergence greenhouse test, plant response rating 0-100; details: scale 0 to 100; for pest or weed control at 31 g/ha / pest or weed control at 62 g/ha / pest or weed control at 125 g/ha / pest or weed control at 250 g/ha / pest or weed control at 500 g/ha: Euphorbia heterophylla, post-emergence, Postemergence, read-out: Plant response rating, Poinsettia, Wild; for Poinsettia, Wild plant response rating: Preemergence
How it was run: (§2)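 Seeds sown in silt loam soil received preemergence treatment with compound in a non-phytotoxic solvent mixture containing surfactant. Postemergence, plants at 2–18 cm (1- to 4-leaf stage) in peat/vermiculite medium were sprayed with the same formulation. Visual injury versus untreated controls was rated 0–100 after 14 to 21 days in the greenhouse.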

[5] = system: Italian ryegrass (Lolium multiflorum); assay: as above; details: scale 0 to 100; for pest or weed control at 31 g/ha / pest or weed control at 62 g/ha / pest or weed control at 125 g/ha / pest or weed control at 250 g/ha / pest or weed control at 500 g/ha: Lolium multiflorum, post-emergence, Postemergence; for Ryegrass, Italian plant response rating: Preemergence
How it was run: as §2

[6] = system: waterhemp_RES2, (ALS & HPPD resistant common waterhemp, Amaranthus rudis); assay: Test E postemergence greenhouse test, plant response rating 0-100; details: scale 0 to 100
How it was run: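 Resistant waterhemp biotypes grown in peat/vermiculite medium and treated postemergence at 2–18 cm height (1- to 4-leaf stage). Kept in greenhouse 14 to 21 days, then visually rated against untreated controls on a 0–100 scale (0 no effect, 100 complete control).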

[7] = system: waterhemp (common waterhemp, Amaranthus rudis); assay: Test C pre-/postemergence greenhouse test, plant response rating 0-100
How it was run: (§3)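 Seeds were sown in a loam soil–sand blend and sprayed preemergence with test chemicals in a non-phytotoxic solvent mixture containing surfactant; postemergence plants in peat/vermiculite medium were treated at 2–18 cm (1- to 4-leaf stage). After 13 to 15 days in the greenhouse, injury was rated visually against untreated controls.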

[8] = system: oilseed rape (Brassica napus); assay: as above
How it was run: as §3

[9] = system: barnyardgrass (Echinochloa crus-galli); assay: as above
How it was run: as §3

[10] = Postemergence, 250 g ai/ha, scale 0 to 100
[11] = Postemergence, 500 g ai/ha, scale 0 to 100
[12] = Postemergence, 125 g ai/ha, scale 0 to 100

CCOC(OCC)(c1ccccc1)c1c[nH]nc1-c1cc(Cl)cc(Cl)c1 [Compound 14, 3-(3,5-dichlorophenyl)-4-(diethoxyphenylmethyl)-1H-pyrazole]
85: Plant response rating, Waterhemp_RES2 ([6]; 62 g ai/ha) | Plant response rating, Oilseed Rape ([8]; Preemergence, 250 g ai/ha) | Plant response rating, Oilseed Rape ([8]; Preemergence, 500 g ai/ha)
0%: pest or weed control at 31 g/ha ([4]; 31 g ai/ha) | pest or weed control at 62 g/ha ([4]; 62 g ai/ha) | pest or weed control at 125 g/ha ([4]; 125 g ai/ha) | pest or weed control at 31 g/ha ([5]; 31 g ai/ha) | pest or weed control at 62 g/ha ([5]; 62 g ai/ha) | pest or weed control at 125 g/ha ([5]; 125 g ai/ha) | pest or weed control at 250 g/ha ([5]; 250 g ai/ha) | pest or weed control at 500 g/ha ([5]; 500 g ai/ha)
95: Plant response rating, Waterhemp_RES2 ([6]; 250 g ai/ha) | Plant response rating, Waterhemp_RES2 ([6]; 500 g ai/ha) | Plant response rating (0 to 100), Waterhemp ([7]; Postemergence, 125 g ai/ha) | Plant response rating, Oilseed Rape [8, 10]
10%: pest or weed control at 250 g/ha ([4]; 250 g ai/ha)
50: Plant response rating, Oilseed Rape ([8]; Preemergence, 62 g ai/ha)
75: Plant response rating, Waterhemp_RES2 ([6]; 31 g ai/ha)
0: Plant response rating, Rice (rice (Oryza sativa)) | Plant response rating, Ducksalad [1] | Plant response rating, Sedge, Umbrella [2] | Plant response rating, Barnyardgrass [3] | Plant response rating (0 to 100), Barnyardgrass ([9]; Postemergence, 62 g ai/ha) | Plant response rating, Barnyardgrass [9, 12] | Plant response rating, Barnyardgrass [9, 10] | Plant response rating, Barnyardgrass [9, 11] | Plant response rating, Barnyardgrass ([9]; Preemergence, 62 g ai/ha) | Plant response rating, Barnyardgrass ([9]; Preemergence, 125 g ai/ha) | Plant response rating, Barnyardgrass ([9]; Preemergence, 250 g ai/ha) | Plant response rating, Barnyardgrass ([9]; Preemergence, 500 g ai/ha)
70: Plant response rating (0 to 100), Oilseed Rape ([8]; Postemergence, 125 g ai/ha)
100: Plant response rating (0 to 100), Waterhemp ([7]; Postemergence, 62 g ai/ha) | Plant response rating, Waterhemp [7, 10] | Plant response rating, Waterhemp [7, 11] | Plant response rating, Waterhemp ([7]; Preemergence, 62 g ai/ha) | Plant response rating, Waterhemp ([7]; Preemergence, 125 g ai/ha) | Plant response rating, Waterhemp ([7]; Preemergence, 250 g ai/ha) | Plant response rating, Waterhemp ([7]; Preemergence, 500 g ai/ha)
90: Plant response rating, Waterhemp_RES2 ([6]; 125 g ai/ha) | Plant response rating, Oilseed Rape [8, 11] | Plant response rating, Oilseed Rape ([8]; Preemergence, 125 g ai/ha)
5%: pest or weed control at 500 g/ha ([4]; 500 g ai/ha)
80: Plant response rating (0 to 100), Oilseed Rape ([8]; Postemergence, 62 g ai/ha)

O=C(c1ccccc1)c1cn(CO)nc1-c1cc(Cl)cc(Cl)c1 [Compound 15, [3-(3,5-dichlorophenyl)-1-(hydroxymethyl)-1H-pyrazol-4-yl]phenylmethanone]
0: Plant response rating, Rice (rice (Oryza sativa)) | Plant response rating, Ducksalad [1] | Plant response rating, Sedge, Umbrella [2] | Plant response rating, Barnyardgrass [3] | Poinsettia, Wild plant response rating ([4]; 125 g ai/ha) | Poinsettia, Wild plant response rating ([4]; 250 g ai/ha) | Poinsettia, Wild plant response rating ([4]; 500 g ai/ha) | Ryegrass, Italian plant response rating ([5]; 31 g ai/ha) | Ryegrass, Italian plant response rating ([5]; 62 g ai/ha) | Ryegrass, Italian plant response rating ([5]; 125 g ai/ha) | Ryegrass, Italian plant response rating ([5]; 250 g ai/ha) | Ryegrass, Italian plant response rating ([5]; 500 g ai/ha) | Plant response rating, Oilseed Rape ([8]; Preemergence, 31 g ai/ha) | Plant response rating (0 to 100), Barnyardgrass ([9]; Postemergence, 62 g ai/ha) | Plant response rating, Barnyardgrass [9, 12] | Plant response rating, Barnyardgrass [9, 10] | Plant response rating, Barnyardgrass [9, 11] | Plant response rating, Barnyardgrass ([9]; Preemergence, 31 g ai/ha) | Plant response rating, Barnyardgrass ([9]; Preemergence, 62 g ai/ha) | Plant response rating, Barnyardgrass ([9]; Preemergence, 125 g ai/ha) | Plant response rating, Barnyardgrass ([9]; Preemergence, 250 g ai/ha)
70: Plant response rating, Waterhemp_RES2 ([6]; 62 g ai/ha)
65: Plant response rating (0 to 100), Waterhemp ([7]; Postemergence, 62 g ai/ha)
90: Plant response rating, Waterhemp_RES2 ([6]; 250 g ai/ha) | Plant response rating (0 to 100), Oilseed Rape ([8]; Postemergence, 125 g ai/ha) | Plant response rating, Oilseed Rape [8, 10] | Plant response rating, Oilseed Rape [8, 11]
60: Plant response rating, Waterhemp_RES2 ([6]; 31 g ai/ha) | Plant response rating (0 to 100), Oilseed Rape ([8]; Postemergence, 62 g ai/ha)
95: Plant response rating (0 to 100), Waterhemp ([7]; Postemergence, 125 g ai/ha)
98: Plant response rating, Waterhemp_RES2 ([6]; 500 g ai/ha)
75: Plant response rating, Waterhemp_RES2 ([6]; 125 g ai/ha)
0%: pest or weed control at 31 g/ha ([4]; 31 g ai/ha) | pest or weed control at 62 g/ha ([4]; 62 g ai/ha) | pest or weed control at 125 g/ha ([4]; 125 g ai/ha) | pest or weed control at 250 g/ha ([4]; 250 g ai/ha) | pest or weed control at 500 g/ha ([4]; 500 g ai/ha) | pest or weed control at 31 g/ha ([5]; 31 g ai/ha) | pest or weed control at 62 g/ha ([5]; 62 g ai/ha) | pest or weed control at 125 g/ha ([5]; 125 g ai/ha) | pest or weed control at 250 g/ha ([5]; 250 g ai/ha) | pest or weed control at 500 g/ha ([5]; 500 g ai/ha)
50: Plant response rating, Oilseed Rape ([8]; Preemergence, 62 g ai/ha) | Plant response rating, Oilseed Rape ([8]; Preemergence, 125 g ai/ha)
100: Plant response rating, Waterhemp [7, 10] | Plant response rating, Waterhemp [7, 11] | Plant response rating, Waterhemp ([7]; Preemergence, 62 g ai/ha) | Plant response rating, Waterhemp ([7]; Preemergence, 125 g ai/ha) | Plant response rating, Waterhemp ([7]; Preemergence, 250 g ai/ha)
80: Plant response rating, Oilseed Rape ([8]; Preemergence, 250 g ai/ha)

COCC(=O)n1cc(C(=O)c2ccccc2)c(-c2cc(Cl)cc(Cl)c2)n1 [Compound 16, 1-[4-benzoyl-3-(3,5-dichlorophenyl)-1H-pyrazol-1-yl]-2-methoxyethanone]
90: Plant response rating (0 to 100), Waterhemp ([7]; Postemergence, 62 g ai/ha) | Plant response rating, Oilseed Rape [8, 10] | Plant response rating, Oilseed Rape [8, 11]
60: Plant response rating (0 to 100), Oilseed Rape ([8]; Postemergence, 125 g ai/ha)
0%: pest or weed control at 31 g/ha ([4]; 31 g ai/ha) | pest or weed control at 62 g/ha ([4]; 62 g ai/ha) | pest or weed control at 125 g/ha ([4]; 125 g ai/ha) | pest or weed control at 250 g/ha ([4]; 250 g ai/ha) | pest or weed control at 500 g/ha ([4]; 500 g ai/ha) | pest or weed control at 31 g/ha ([5]; 31 g ai/ha) | pest or weed control at 62 g/ha ([5]; 62 g ai/ha) | pest or weed control at 125 g/ha ([5]; 125 g ai/ha) | pest or weed control at 250 g/ha ([5]; 250 g ai/ha) | pest or weed control at 500 g/ha ([5]; 500 g ai/ha)
95: Plant response rating, Waterhemp_RES2 ([6]; 31 g ai/ha) | Plant response rating, Waterhemp_RES2 ([6]; 62 g ai/ha) | Plant response rating (0 to 100), Waterhemp ([7]; Postemergence, 125 g ai/ha)
50: Plant response rating (0 to 100), Oilseed Rape ([8]; Postemergence, 62 g ai/ha) | Plant response rating, Oilseed Rape ([8]; Preemergence, 125 g ai/ha)
98: Plant response rating, Waterhemp_RES2 ([6]; 250 g ai/ha) | Plant response rating, Waterhemp [7, 10]
0: Plant response rating, Rice (rice (Oryza sativa)) | Plant response rating, Ducksalad [1] | Plant response rating, Sedge, Umbrella [2] | Plant response rating, Barnyardgrass [3] | Poinsettia, Wild plant response rating ([4]; 31 g ai/ha) | Poinsettia, Wild plant response rating ([4]; 62 g ai/ha) | Poinsettia, Wild plant response rating ([4]; 125 g ai/ha) | Poinsettia, Wild plant response rating ([4]; 250 g ai/ha) | Poinsettia, Wild plant response rating ([4]; 500 g ai/ha) | Ryegrass, Italian plant response rating ([5]; 31 g ai/ha) | Ryegrass, Italian plant response rating ([5]; 62 g ai/ha) | Ryegrass, Italian plant response rating ([5]; 125 g ai/ha) | Ryegrass, Italian plant response rating ([5]; 250 g ai/ha) | Ryegrass, Italian plant response rating ([5]; 500 g ai/ha) | Plant response rating, Oilseed Rape ([8]; Preemergence, 62 g ai/ha) | Plant response rating (0 to 100), Barnyardgrass ([9]; Postemergence, 62 g ai/ha) | Plant response rating, Barnyardgrass [9, 12] | Plant response rating, Barnyardgrass [9, 10] | Plant response rating, Barnyardgrass [9, 11] | Plant response rating, Barnyardgrass ([9]; Preemergence, 62 g ai/ha) | Plant response rating, Barnyardgrass ([9]; Preemergence, 125 g ai/ha) | Plant response rating, Barnyardgrass ([9]; Preemergence, 250 g ai/ha) | Plant response rating, Barnyardgrass ([9]; Preemergence, 500 g ai/ha)
100: Plant response rating, Waterhemp_RES2 ([6]; 500 g ai/ha) | Plant response rating, Waterhemp [7, 11] | Plant response rating, Waterhemp ([7]; Preemergence, 62 g ai/ha) | Plant response rating, Waterhemp ([7]; Preemergence, 125 g ai/ha) | Plant response rating, Waterhemp ([7]; Preemergence, 250 g ai/ha) | Plant response rating, Waterhemp ([7]; Preemergence, 500 g ai/ha) | Plant response rating, Oilseed Rape ([8]; Preemergence, 250 g ai/ha) | Plant response rating, Oilseed Rape ([8]; Preemergence, 500 g ai/ha)
75: Plant response rating, Waterhemp_RES2 ([6]; 125 g ai/ha)
